The NIST ThermoML archive (doi:10.1016/j.fluid.2018.05.005)
± gives the expanded uncertainty stated by the source.

How the values were obtained:
[1] = Crystal; DSC
[2] = Molar enthalpy of transition or fusion; conditions: Crystal; DSC

- Triple point temperature [1]: 428.99 ± 1.9 K
- Molar enthalpy of transition or fusion [2]: 5.86 ± 0.263 kcal/mol
SMILES: CC1(C)CCC2=C(O1)c1ccccc1C(=O)C2=O [3,4-dihydro-2,2-dimethyl-2H-naphtho[1,2-b]pyran-5,6-dione]
